Read-outs that look alike come from different tables or passages of the source.
Biological target: CFTR (Homo sapiens, UniProt P13569)
Assay: Membrane Potential Dye, Enteroid Assay A
Assay type: cell-based
Details: for EC50: read-out: Ent. A EC50
Protocol: Base medium (ADF+++) consisted of Advanced DMEM/Ham's F12, 2 mM Glutamax, 10 mM HEPES, […] penicillin/streptomycin.
Bath 1 Buffer consisted of 1 mM MgCl2, 160 mM NaCl, 4.5 mM KCl, 10 mM HEPES, 10 mM Glucose, 2 mM CaCl2).
Chloride Free Buffer consisted of 1 mM Magnesium Gluconate, 2 mM Calcium Gluconate, 4.5 mM Potassium Gluconate, 160 mM Sodium Gluconate, 10 mM HEPES, 10 mM Glucose.
Bath 1 Dye Solution consisted of Bath 1 Buffer, 0.04% Pluronic F127, 20 μM Methyl Oxonol, 30 μM CaCCinh-A01, 30 μM Chicago Sky Blue.
Chloride Free Dye Solution consisted of Chloride Free Buffer, 0.04% Pluronic F127, 20 μM Methyl Oxonol, 30 μM CaCCinh-A01, 30 μM Chicago Sky Blue.
3. Enteroid Cell Harvesting and Seeding
Cells were recovered in cell recovery solution, collected by centrifugation at 650 rpm for 5 min at 4° C., resuspended in TryPLE and incubated for 5 min at 37° C. Cells were then collected by centrifugation at 650 rpm for 5 min at 4° C. and resuspended in IEMM containing 10 μM ROCK inhibitor (RI).
4. Membrane Potential Dye, Enteroid Assay A
Briefly, cells were washed 5 times in Bath 1 Buffer. Bath 1 Dye Solution was added, and the cells were incubated for 25 min at room temperature. Following dye incubation, cells were washed 3 times in Chloride Free Dye Solution. Chloride transport was initiated by addition of Chloride Free Dye Stimulation Solution and the fluorescence signal was read for 15 min. […] Chloride transport was then expressed as a percentage of the chloride transport following treatment with 3 μM N-[(6-amino-2-pyridyl)sulfonyl]-6-(3-fluoro-5-isobutoxy-phenyl)-2-[(4S)-2,2,4-trimethylpyrrolidin-1-yl]pyridine-3-carboxamide, 3 μM (R)-1-(2,2-difluorobenzo[d][1,3]dioxol-5-yl)-N-(1-(2,3-dihydroxypropyl)-6-fluoro-2-(1-hydroxy-2-methylpropan-2-yl)-1H-indol-5-yl)cyclopropanecarboxamide and 300 nM acute N-[2,4-bis(1,1-dimethylethyl)-5-hydroxyphenyl]-1,4-dihydro-4-oxoquinoline-3-carboxamide triple combination control (% Activity).

Sequence of CFTR (P13569 with tags, fused parts or gaps DEL508-508): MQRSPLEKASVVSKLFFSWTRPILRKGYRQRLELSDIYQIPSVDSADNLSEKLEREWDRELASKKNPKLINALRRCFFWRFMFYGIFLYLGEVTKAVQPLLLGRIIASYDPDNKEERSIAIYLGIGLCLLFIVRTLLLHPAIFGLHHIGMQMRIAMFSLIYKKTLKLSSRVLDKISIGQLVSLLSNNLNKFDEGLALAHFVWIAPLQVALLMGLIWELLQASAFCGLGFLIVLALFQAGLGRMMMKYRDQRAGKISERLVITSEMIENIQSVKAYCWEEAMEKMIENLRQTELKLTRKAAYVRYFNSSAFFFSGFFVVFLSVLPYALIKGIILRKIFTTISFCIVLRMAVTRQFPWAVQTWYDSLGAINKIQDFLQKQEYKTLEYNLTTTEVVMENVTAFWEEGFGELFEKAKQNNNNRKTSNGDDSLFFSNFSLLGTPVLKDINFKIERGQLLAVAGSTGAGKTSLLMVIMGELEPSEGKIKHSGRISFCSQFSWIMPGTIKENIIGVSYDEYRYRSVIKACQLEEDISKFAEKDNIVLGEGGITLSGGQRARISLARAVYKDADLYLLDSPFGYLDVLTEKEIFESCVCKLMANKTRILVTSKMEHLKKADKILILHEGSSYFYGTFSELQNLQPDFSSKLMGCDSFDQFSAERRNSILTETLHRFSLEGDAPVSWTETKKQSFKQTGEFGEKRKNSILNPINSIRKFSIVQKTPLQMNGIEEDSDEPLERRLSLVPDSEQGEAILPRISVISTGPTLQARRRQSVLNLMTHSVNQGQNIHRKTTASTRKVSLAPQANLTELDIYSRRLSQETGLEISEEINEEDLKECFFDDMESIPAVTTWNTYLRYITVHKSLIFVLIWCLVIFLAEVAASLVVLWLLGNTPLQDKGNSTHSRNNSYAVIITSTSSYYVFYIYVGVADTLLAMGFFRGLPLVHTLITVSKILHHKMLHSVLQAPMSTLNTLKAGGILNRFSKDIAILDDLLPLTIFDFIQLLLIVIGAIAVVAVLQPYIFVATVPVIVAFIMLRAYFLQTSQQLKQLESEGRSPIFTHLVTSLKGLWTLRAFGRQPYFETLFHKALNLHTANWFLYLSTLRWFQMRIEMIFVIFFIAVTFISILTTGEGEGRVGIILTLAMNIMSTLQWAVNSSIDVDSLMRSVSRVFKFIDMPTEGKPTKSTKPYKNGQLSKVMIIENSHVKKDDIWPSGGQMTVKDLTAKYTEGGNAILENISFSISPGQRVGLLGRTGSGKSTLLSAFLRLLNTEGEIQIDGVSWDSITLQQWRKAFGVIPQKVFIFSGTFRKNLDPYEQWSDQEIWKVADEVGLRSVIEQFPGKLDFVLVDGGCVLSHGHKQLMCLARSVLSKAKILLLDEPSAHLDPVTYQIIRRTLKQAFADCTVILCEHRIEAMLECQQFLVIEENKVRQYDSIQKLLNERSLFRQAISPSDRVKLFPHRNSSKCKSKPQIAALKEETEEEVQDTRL

Cc1cccc(C)c1-c1cc2nc(n1)NS(=O)(=O)c1cccc(c1)C(=O)NCC(c1ccc(C3CCC3)cc1)O2 (centres unmarked) [Compound 12, 10-(4-Cyclobutylphenyl)-6-(2,6-dimethylphenyl)-2,2-dioxo-9-oxa-2λ^6-thia-3,5,12,19-tetrazatricyclo[12.3.1.14,8]nonadeca-1(18),4(19),5,7,14,16-hexaen-13-one]
Ent. A Max Activity (Table 9): +++ (+++ is >60%)
EC50 (Table 9): < 1 µM

CC(C)C[C@@H]1COc2cc(-n3nccc3C(C)C)nc(n2)NS(=O)(=O)c2cccc(c2)C(=O)N1 [Compound 307]
Ent. A Max Activity (Table 8): + (+ is <30%)

Cc1cccc(C)c1-c1cc2nc(n1)NS(=O)(=O)c1cccc(c1)C(=O)NC[C@@H](c1ccc(C(C)(F)F)cc1)O2 (stereo in doubt) [Compound 400]
Ent. A Max Activity (Table 8): + (+ is <30%)
EC50 (Table 8): 1 to 3 µM

Cc1cccc(C)c1-c1cc2nc(n1)NS(=O)(=O)c1cccc(c1)C(=O)N[C@@H]1CN(Cc3ccccc3)CC[C@H]1O2 [Compound 61, (3R,8R)-6-Benzyl-20-(2,6-dimethylphenyl)-2-oxa-16λ^6-thia-6,9,17,19,22-pentaazatetracyclo[16.3.1.111,15.03,8]tricosa-1(21),11,13,15(23),18(22),19-hexaene-10,16,16-trione]
Ent. A Max Activity (Table 9): +++ (+++ is >60%)
EC50 (Table 9): < 1 µM

CC(C)C[C@@H]1COc2cc(N3C(C)CCC3C)nc(n2)NS(=O)(=O)c2cccc(c2)C(=O)N1 (some centres unmarked) [Compound 309]
Ent. A Max Activity (Table 8): + (+ is <30%)

Cc1cccc(C)c1-c1cc2nc(n1)NS(=O)(=O)c1cccc(c1)C(=O)NCC1(CCN(CCC(C)CC(C)(C)C)CC1)CO2 (centres unmarked) [Compound 441]
Ent. A Max Activity (Enteroid Assay A): +++ (+++ is >600%)
EC50 (Enteroid Assay A): < 1 µM

COc1ccc(C)c(-c2cc3nc(n2)NS(=O)(=O)c2cccc(c2)C(=O)N[C@H](CC(C)C)CO3)c1 [Compound 302]
Ent. A Max Activity (Table 8): +++ (+++ is >60%)
EC50 (Table 8): 1 to 3 µM

Cc1cccc(C)c1-c1cc2nc(n1)NS(=O)(=O)[C@H]1CCCN(C1)C(=O)N[C@H](CC1CCCCC1)CO2 (stereo in doubt) [Compound 159]
Ent. A Max Activity (Table 8): + (+ is <30%)

Cc1cccc(C)c1-c1cc2nc(n1)NS(=O)(=O)c1cccc(c1)C(=O)NC1CC(CN(C(=O)OCc3ccccc3)C1)O2 (centres unmarked) [Compound 200]
Ent. A Max Activity (Enteroid Assay A): ++ (++ is 30-60%)
EC50 (Enteroid Assay A): 3 to 30 µM

Cc1cccc(C)c1-c1cc2nc(n1)NS(=O)(=O)c1cccc(c1)C(=O)N[C@@H](C(CC(C)C)c1ccccc1)CO2 (stereo in doubt) [Compound 180]
Ent. A Max Activity (Table 9): ++ (++ is 30-60%)
EC50 (Table 9): < 1 µM

Cc1cccc(C)c1-c1cc2nc(n1)NS(=O)(=O)c1cccc(c1)C(=O)NCC(c1ccccn1)O2 (centres unmarked) [Compound 234]
Ent. A Max Activity (Table 8): + (+ is <30%)

Cc1cccc(C)c1-c1cc2nc(n1)NS(=O)(=O)c1cccc(c1)C(=O)N[C@@H]1CCN(C(=O)CC(C)(C)C)C[C@@H]1O2 (stereo in doubt) [Compound 380]
Ent. A Max Activity (Table 9): ++ (++ is 30-60%)
EC50 (Table 9): 3 to 30 µM

Cc1cccc(C)c1-c1cc2nc(n1)NS(=O)(=O)c1ccccc1C(=O)NC(CC(C)C)CO2 (centres unmarked) [Compound 223]
Ent. A Max Activity (Table 9): + (+ is <30%)

Cc1cccc(C)c1-c1cc2nc(n1)NS(=O)(=O)c1cccc(c1)C(=O)N[C@H](CC1CCCCC1)[C@@H](C)O2 [Compound 144]
Ent. A Max Activity (Table 8): +++ (+++ is >60%)
EC50 (Table 8): < 1 µM

CCCCC1(CCCC)COc2cc(-c3c(C)cccc3C)nc(n2)NS(=O)(=O)c2cccc(c2)C(=O)N1 [Compound 185]
Ent. A Max Activity (Table 9): +++ (+++ is >60%)
EC50 (Table 9): < 1 µM

Cc1cccnc1-c1cc2nc(n1)NS(=O)(=O)c1cccc(c1)C(=O)N[C@H](CC(C)C)CO2 [Compound 108, (11R)-11-Isobutyl-6-(3-methyl-2-pyridyl)-2,2-dioxo-9-oxa-2λ^6-thia-3,5,12,19-tetrazatricyclo[12.3.1.14,8]nonadeca-1(18),4(19),5,7,14,16-hexaen-13-one]
Ent. A Max Activity (Table 9): ++ (++ is 30-60%)
EC50 (Table 9): 3 to 30 µM

Cc1cccc(C)c1-c1cc2nc(n1)NS(=O)(=O)c1cccc(c1)C(=O)NCC1(CCN(C(=O)c3cc4ccc(OC(F)(F)F)cc4[nH]3)CC1)CO2 [Compound 84, 6-(2,6-Dimethylphenyl)-2,2-dioxo-1′-[6-(trifluoromethoxy)-1H-indole-2-carbonyl]spiro[9-oxa-2λ^6-thia-3,5,13,20-tetrazatricyclo[13.3.1.14,8]icosa-1(19),4(20),5,7,15,17-hexaene-11,4′-piperidine]-14-one]
Ent. A Max Activity (Enteroid Assay A): ++ (++ is 30-60%)
EC50 (Enteroid Assay A): < 1 µM

Cc1cccc(C)c1-c1cc2nc(n1)NS(=O)(=O)c1cccc(c1)C(=O)NC1c3ccccc3CC1O2 (centres unmarked) [Compound 489]
Ent. A Max Activity (Enteroid Assay A): +++ (+++ is >600%)
EC50 (Enteroid Assay A): < 1 µM

Cc1cccc(C)c1-c1cc2nc(n1)NS(=O)(=O)c1cccc(c1)C(=O)NCC(c1ccc(Br)cc1)O2 (racemic) [Compound 18, 10-(4-Bromophenyl)-6-(2,6-dimethylphenyl)-2,2-dioxo-9-oxa-2λ^6-thia-3,5,12,19-tetrazatricyclo[12.3.1.14,8]nonadeca-1(18),4(19),5,7,14,16-hexaen-13-one]
Ent. A Max Activity (Table 8): +++ (+++ is >60%)
EC50 (Table 8): < 1 µM

Cc1cccc(C)c1-c1cc2nc(n1)NS(=O)(=O)c1cccc(c1)C(=O)NC(CCC1(C(F)(F)F)CC1)CO2 (centres unmarked) [Compound 92, 6-(2,6-dimethylphenyl)-2,2-dioxo-11-[2-[1-(trifluoromethyl)cyclopropyl]ethyl]-9-oxa-2λ^6-thia-3,5,12,19-tetrazatricyclo[12.3.1.14,8]nonadeca-1(18),4(19),5,7,14,16-hexaen-13-one]
Ent. A Max Activity (Table 8): +++ (+++ is >60%)
EC50 (Table 8): < 1 µM

Cc1cccc(C)c1-c1cc2nc(n1)NS(=O)(=O)c1cccc(c1)C(=O)NCC(Cc1ccc(C(C)(C)C)cc1)O2 (centres unmarked) [Compound 242]
EC50 (Table 8): < 1 µM

Cc1cccc(C)c1-c1cc2nc(n1)NS(=O)(=O)c1cccc(c1)C(=O)NC1CCCC[C@@H]1O2 (stereo in doubt) [Compound 485]
EC50 (Enteroid Assay A): 1 to 3 µM

CC(C)C[C@@H]1COc2cc(-c3ccccc3C(C)C)nc(n2)NS(=O)(=O)c2cccc(c2)C(=O)N1 [Compound 345]
Ent. A Max Activity (Enteroid Assay A): +++ (+++ is >600%)
EC50 (Enteroid Assay A): < 1 µM

COc1cccc(C)c1-c1cc2nc(n1)NS(=O)(=O)c1cccc(c1)C(=O)N[C@H](CC(C)(C)C)CO2 [Compound 304]
Ent. A Max Activity (Table 8): +++ (+++ is >60%)
EC50 (Table 8): 1 to 3 µM

Cc1cccc(C)c1-c1cc2nc(n1)NS(=O)(=O)c1cccc(c1)C(=O)NCC(c1ccc([Si](C)(C)C)cc1)O2 (single isomer, unassigned) [Compound 16, 6-(2,6-Dimethylphenyl)-2,2-dioxo-10-(4-trimethylsilylphenyl)-9-oxa-2λ^6-thia-3,5,12,19-tetrazatricyclo[12.3.1.14,8]nonadeca-1(18),4(19),5,7,14,16-hexaen-13-one]
EC50 (Table 9): < 1 µM

Cc1cccc(C)c1-c1cc2nc(n1)NS(=O)(=O)c1cccc(c1)C(=O)NCC(c1ccc3c(c1)C(C)(C)CCC3(C)C)O2 (centres unmarked) [Compound 117]
Ent. A Max Activity (Table 8): +++ (+++ is >60%)
EC50 (Table 8): < 1 µM

Cc1cccc(C)c1-c1cc2nc(n1)NS(=O)(=O)c1cccc(c1)C(=O)N[C@@H](CC(C)C)CCO2 [Compound 224]
Ent. A Max Activity (Table 9): ++ (++ is 30-60%)
EC50 (Table 9): 1 to 3 µM

Cc1cccc(C)c1-c1cc2nc(n1)NS(=O)(=O)c1cccc(c1)C(=O)NCC1(CCN(C(=O)[C@H]3[C@H](c4ccccc4)C3(C)C)CC1)CO2 [Compound 465]
Ent. A Max Activity (Enteroid Assay A): ++ (++ is 30-60%)
EC50 (Enteroid Assay A): 1 to 3 µM

Cc1cccc(C)c1-c1cc2nc(n1)NS(=O)(=O)[C@H]1CC[C@H]1C(=O)N[C@H](CC(C)C)CO2 (single isomer, unassigned) [Compound 71]
Ent. A Max Activity (Table 9): + (+ is <30%)

Cc1cccc(C)c1-c1cc2nc(n1)NS(=O)(=O)c1cccc(c1)C(=O)N[C@H](C(C)C)CO2 [Compound 112, (11R)-6-(2,6-Dimethylphenyl)-11-(propan-2-yl)-9-oxa-2λ^6-thia-3,5,12,19-tetraazatricyclo[12.3.1.14,8]nonadeca-1(17),4,6,8(19),14(18),15-hexaene-2,2,13-trione]
Ent. A Max Activity (Enteroid Assay A): +++ (+++ is >600%)
EC50 (Enteroid Assay A): < 1 µM

Cc1cccc(C)c1-c1cc2nc(n1)NS(=O)(=O)c1cccc(c1)C(=O)N[C@@H]1CCCC[C@@H]1O2 [Compound 363]
Ent. A Max Activity (Enteroid Assay A): ++ (++ is 30-60%)
EC50 (Enteroid Assay A): 1 to 3 µM

CC(C)C[C@@H]1COc2cc(-n3ccc(C(F)(F)F)n3)nc(n2)NS(=O)(=O)c2cccc(c2)C(=O)N1 [Compound 308]
Ent. A Max Activity (Table 8): + (+ is <30%)

Cc1cccc(C)c1-c1cc2nc(n1)NS(=O)(=O)c1cccc(c1)C(=O)NC[C@@H](c1ccc(C(C)(C)C(F)(F)F)cc1)O2 [Compound 257]
Ent. A Max Activity (Table 9): + (+ is <30%)
EC50 (Table 9): < 1 µM

— US20230382924A1, “MODULATORS OF CYSTIC FIBROSIS TRANSMEMBRANE CONDUCTANCE REGULATOR” (VERTEX PHARMACEUTICALS INCORPORATED, priority 2020, published 2023)
